Source: article PMC11672637, “7-O-Carboxylic Acid-Substituted 3-O-Alkyl Difluoroquercetin; An Aztreonam-Potentiating Agent Against Carbapenemase-Producing Pseudomonas aeruginosa Through Simultaneous Inhibition of Metallo-β-Lactamase and Efflux Pump” (Antibiotics, 2024)
Where two headings read alike, the source gives them in different places.

Legend:
PA-028, blaNDM = assay: MIC / checkerboard with ATM; format: cell-based, P. aeruginosa; conditions: for MIC: Pseudomonas aeruginosa, read-out: MIC of ATM with 5, PA-028
[1] = system: wild-type P. aeruginosa (ATCC 27853); assay: Time–kill assay; format: cell-based; conditions: for Log CFU/mL, ATM + 5: 24 h
Experimental: Aliquots (50 μL) were taken from the incubation mixture at regular time intervals (t = 0, 3, 6, and 24 h), serially diluted in 0.85% NaCl solution, and plated on BAP. Bacterial colonies were counted, and the data are presented as the means of at least three independent experiments.

PA-042, blaIMP/NDM = assay: MIC / checkerboard with ATM; format: cell-based, P. aeruginosa; conditions: for MIC: Pseudomonas aeruginosa, read-out: MIC of ATM with 5, PA-042
HEK293 cells = assay: Cytotoxicity assay (WST-1); format: cell-based, human; conditions: 24 h, 0.5–128 mg/L tested
Experimental: The HEK293 cells were cultured in Dulbecco’s modified Eagle medium (DMEM) supplemented with 10% fetal bovine serum (FBS) and 1% penicillin-streptomycin solution at 37 °C with 5% CO2. The cells seeded into 96-well plates at 1.5 × 10^4 cells/well were incubated for 24 h. The compound 5 was added to the wells at concentrations ranging from 0.5 to 128 mg/L and incubated for 24 h. Then, for WST-1 assay, EZ-cytox solution (10 μL, DoGenBio, Seoul, Republic of Korea) was added to the wells and incubated for 1 h, and the absorbance was measured at 450 nm (Cytation 5 imaging multimode reader, BioTek Instruments, Inc., Winooski, VT, USA).

PA-032, blaIMP = assay: MIC / checkerboard with ATM; format: cell-based, P. aeruginosa; conditions: for MIC: Pseudomonas aeruginosa, read-out: MIC of ATM with 5, PA-032
PA-016, blaIMP = assay: MIC / checkerboard with ATM; format: cell-based, P. aeruginosa; conditions: for MIC: Pseudomonas aeruginosa, read-out: MIC of ATM with 5, PA-016

## CC(C)(C)CCOc1c(-c2ccc(F)c(F)c2)oc2cc(OCC(=O)O)cc(O)c2c1=O [Compound 5, 2-((2-(3,4-Difluorophenyl)-3-(3,3-dimethylbutoxy)-5-hydroxy-4-oxo-4H-chromen-7-yl)oxy)acetic Acid]
PA-028, blaNDM; PA-028
  Activity (FICI class): S (S (Synergy, FICI ≤ 0.5))
  Concentrations of ATM and 5 at lowest FICI (ATM/5): 2/2
  Lowest FICI (ATM/5): 0.25
PA-028, blaNDM; PA-028, ATM/5
  Susceptibility to ATM: S (S (sensitive, MIC ≤ 8 mg/L))
PA-028, blaNDM; PA-028, lowest-FICI combination
  FD (fold decrease in MIC of ATM with 5): 4
PA-028, blaNDM; 5 at 1 mg/L
  MIC: 4 µg/mL
PA-028, blaNDM; 5 at 2 mg/L
  MIC: 2 µg/mL
PA-028, blaNDM; 5 at 4 mg/L
  MIC: 2 µg/mL
PA-028, blaNDM; 5 at 8 mg/L
  MIC: 2 µg/mL
PA-028, blaNDM; 5 at 16 mg/L
  MIC: 1 µg/mL
PA-028, blaNDM; 5 at 32 mg/L
  MIC: 1 µg/mL
PA-028, blaNDM; 5 at 64 mg/L
  MIC: 1 µg/mL
[1]; ATM 1/2 MIC + 5 at 8 mg/L
  Diff. (ATM + 5, 24 h vs initial inoculum): −0.04 Log CFU/mL
  Diff. (ATM + 5 vs ATM only): −3.51 Log CFU/mL
  Synergistic activity, interpretation: Synergy (a ≥ 2 log10 decrease in CFU/mL for the combination of ATM and 5 compared to ATM alone after 24 h of incubation)
  Log CFU/mL, ATM + 5: 5.80 Log CFU/mL
[1]; ATM 1/4 MIC + 5 at 8 mg/L
  Diff. (ATM + 5, 24 h vs initial inoculum): −0.04 Log CFU/mL
  Diff. (ATM + 5 vs ATM only): −3.77 Log CFU/mL
  Synergistic activity, interpretation: Synergy (a ≥ 2 log10 decrease in CFU/mL for the combination of ATM and 5 compared to ATM alone after 24 h of incubation)
  Log CFU/mL, ATM + 5: 5.80 Log CFU/mL
[1]; ATM 1 MIC + 5 at 8 mg/L
  Diff. (ATM + 5, 24 h vs initial inoculum): −5.57 Log CFU/mL
  Diff. (ATM + 5 vs ATM only): −7.75 Log CFU/mL
  Synergistic activity, interpretation: Synergy (a ≥ 2 log10 decrease in CFU/mL for the combination of ATM and 5 compared to ATM alone after 24 h of incubation)
  Log CFU/mL, ATM + 5: 0.27 Log CFU/mL
[1]; ATM 2 MIC + 5 at 8 mg/L
  Diff. (ATM + 5, 24 h vs initial inoculum): −5.84 Log CFU/mL
  Diff. (ATM + 5 vs ATM only): −0.17 Log CFU/mL
  Log CFU/mL, ATM + 5: 0.00 Log CFU/mL
PA-042, blaIMP/NDM; PA-042
  Activity (FICI class): I (I (indifference, 0.5 < FICI ≤ 4))
  Concentrations of ATM and 5 at lowest FICI (ATM/5): 1/4
  Lowest FICI (ATM/5): 0.51
PA-042, blaIMP/NDM; PA-042, ATM/5
  Susceptibility to ATM: S (S (sensitive, MIC ≤ 8 mg/L))
PA-042, blaIMP/NDM; PA-042, lowest-FICI combination
  FD (fold decrease in MIC of ATM with 5): 2
PA-042, blaIMP/NDM; 5 at 1 mg/L
  MIC: 2 µg/mL
PA-042, blaIMP/NDM; 5 at 2 mg/L
  MIC: 2 µg/mL
PA-042, blaIMP/NDM; 5 at 4 mg/L
  MIC: 1 µg/mL
PA-042, blaIMP/NDM; 5 at 8 mg/L
  MIC: 1 µg/mL
PA-042, blaIMP/NDM; 5 at 16 mg/L
  MIC: 1 µg/mL
PA-042, blaIMP/NDM; 5 at 32 mg/L
  MIC: 1 µg/mL
PA-042, blaIMP/NDM; 5 at 64 mg/L
  MIC: 1 µg/mL
HEK293 cells
  Concentration at which cell viability was affected: greater than 64 mg/L
PA-032, blaIMP; PA-032
  Activity (FICI class): S (S (Synergy, FICI ≤ 0.5))
  Concentrations of ATM and 5 at lowest FICI (ATM/5): 2/8
PA-032, blaIMP; PA-032, ATM/5
  Susceptibility to ATM: S (S (sensitive, MIC ≤ 8 mg/L))
PA-032, blaIMP; PA-032, lowest-FICI combination
  FD (fold decrease in MIC of ATM with 5): 4
PA-032, blaIMP; 5 at 1 mg/L
  MIC: 4 µg/mL
PA-032, blaIMP; 5 at 2 mg/L
  MIC: 4 µg/mL
PA-032, blaIMP; 5 at 4 mg/L
  MIC: 4 µg/mL
PA-032, blaIMP; 5 at 8 mg/L
  MIC: 2 µg/mL
PA-032, blaIMP; 5 at 16 mg/L
  MIC: 1 µg/mL
PA-032, blaIMP; 5 at 32 mg/L
  MIC: 1 µg/mL
PA-032, blaIMP; 5 at 64 mg/L
  MIC: 1 µg/mL
PA-016, blaIMP; PA-016
  Activity (FICI class): S (S (Synergy, FICI ≤ 0.5))
  Concentrations of ATM and 5 at lowest FICI (ATM/5): 8/8
  Lowest FICI (ATM/5): 0.27
  Minimum concentration of 5 to make sensitive to ATM: 8 mg/L
PA-016, blaIMP; PA-016, ATM/5
  Susceptibility to ATM: S (S (sensitive, MIC ≤ 8 mg/L))
PA-016, blaIMP; PA-016, lowest-FICI combination
  FD (fold decrease in MIC of ATM with 5): 4
PA-016, blaIMP; 5 at 1 mg/L
  MIC: 32 µg/mL
PA-016, blaIMP; 5 at 2 mg/L
  MIC: 16 µg/mL
PA-016, blaIMP; 5 at 4 mg/L
  MIC: 16 µg/mL
PA-016, blaIMP; 5 at 8 mg/L
  MIC: 8 µg/mL
PA-016, blaIMP; 5 at 16 mg/L
  MIC: 8 µg/mL
PA-016, blaIMP; 5 at 32 mg/L
  MIC: 4 µg/mL
PA-016, blaIMP; 5 at 64 mg/L
  MIC: 4 µg/mL
